# Results: article PMC9583322, “Vicinal Diaryl-Substituted Isoxazole and Pyrazole Derivatives with In Vitro Growth Inhibitory and In Vivo Antitumor Activity” (ACS Omega, 2022)
# Columns and labels:
# Huh7 = test: SRB cytotoxicity assay; type: cell-based, human; conditions: Homo sapiens, Huh-7, 72 h, 72 h treatment
# Procedure: (§1) HepG2, FOCUS, Hep3B, Mahlavu, Huh7, Hep40, and PLC-PRF-5 hepatocellular carcinoma cells; MCF-7, MDA-MB-231, MDA-MB-468, SKBR3, and ZR-75 breast cancer cells; and normal-like epithelial MCF-10A breast cells were cultured in low-glucose Dulbecco’s modified Eagle’s medium (DMEM) (Biological Industries-BI) supplemented with 10% fetal bovine serum (FBS) (Gibco/Thermo Fisher Scientific), 2 mM L-Glutamine (Gibco/Thermo Fisher Scientific), 100 Units/mL Penicillin/Streptomycin, and 0.1 mM non-essential amino acid (Gibco/Thermo Fisher Scientific). SNU475 hepatocellular carcinoma cells were maintained in RPMI (Biological Industries-BI) supplemented with 10% fetal bovine serum (FBS) (Gibco/Thermo Fisher Scientific), L-Glutamine (Gibco/Thermo Fisher Scientific), and 100 Units/mL Penicillin/Streptomycin, while ZR-75 breast cancer cells were cultured RPMI (Biological Industries-BI) supplemented with 10% fetal bovine serum (FBS) (Gibco/Thermo Fisher Scientific), 1× sodium pyruvate, and %4.5 glucose. Normal-like MCF-10A breast cells were sustained in DMEM/HAM’S F12 (Hyclone) supplemented with 10% fetal bovine serum (FBS) (Gibco/Thermo Fisher Scientific), EGF (20 ng/mL), Hydrocortisone ([…]), cholera toxin (100 ng/mL), insulin (10 μg/mL), and 100 Units/mL Penicillin/Streptomycin. The cells were cultivated at 37 °C in a humidified incubator under 5% CO2.
# (§2) Mahlavu, FOCUS, SNU475 (1000 cell/well in 150 μL/well); Huh7, MCF7 (2500 cell/well in 150 μL/well); HepG2, Hep3B, SKBR3 (3000 cell/well in 150 μL/well); PLC-PRF-5, Hep40 (5000 cell/well in 150 μL/well); MDA-MB-231, MDA-MB-468, MCF10A (6000 cell/well in 150 μL/well); and ZR-75 (7500 cell/well in 150 μL/well) were cultured in 96-well plates and were inoculated in an incubator for 24 hours. The compounds were dissolved in dimethyl sulfoxide (DMSO) (Sigma, St Louis, MO) as a 20 mM stock solution. The treatment of cells with the compounds was done in a concentration range starting from 40 to 2.5 μM. The compounds which were below 2.5 μM were tested in a concentration range from 2.5 to 0.15 μM. End of the 72h compound treatment, the cells were fixed using 10% (v/v) trichloroacetic acid (MERCK) for an hour and washed with ddH2O, and left for air-drying. The fixed plates were stained with 50 μL of sulforhodamine B (SRB) solution (Sigma) at RT for 10 min. To remove unbound SRB dye, acetic acid was used to wash cells three times and left for drying. The protein-bound SRB was solubilized with 10 mM Tris-base (Sigma) and their absorbance was measured with a 96-well plate reader at 515 nm wavelength (ELx800, Biotek). The IC50 values of compounds were calculated in comparison with control group DMSO. Data with R^2 values larger than 0.9 are considered significant.
# MCF7 = test: SRB cytotoxicity assay; type: cell-based, human; conditions: 72 h treatment
# Procedure: as §1, §2
# Mahlavu = test: SRB cytotoxicity assay; type: cell-based, human; conditions: 72 h treatment
# Procedure: as §1, §2
SMILES,melting point,IC50 (Huh7),"IC50 (MCF7; Homo sapiens, MCF7, 72 h)",IC50 (MCF7),"IC50 (Mahlavu; Homo sapiens, Mahlavu, 72 h)",IC50 (Mahlavu)
"Cc1noc(C)c1COc1ccc(-c2noc(C)c2-c2ccc(Cl)cc2)cc1 [compound 39, 4-(4-Chlorophenyl)-3-(4-((3,5-dimethylisoxazol-4-yl)methoxy)phenyl)-5-methylisoxazole]",138.9 to 141.3 °C,3.7 µM,> 20 µM,–,–,–
"Cc1cc(COc2ccc(-c3noc(C)c3-c3ccc(Cl)cc3)cc2)n(C)n1 [compound 40, 4-(4-Chlorophenyl)-3-(4-((1,3-dimethyl-1H-pyrazol-5-yl)methoxy)phenyl)-5-methylisoxazole]",156.4 to 157.9 °C,0.9 µM,12.2 µM,–,–,–
"Cc1onc(-c2ccc(OCc3cncn3C(C)C)cc2)c1-c1ccc(Cl)cc1 [compound 41, 4-(4-Chlorophenyl)-3-(4-((1-isopropyl-1H-imidazol-5-yl)methoxy)phenyl)-5-methylisoxazole]",168.4 to 170.7 °C,2.5 µM,16.7 µM,–,–,–
"Cc1onc(-c2ccc(OCc3ccc(C(F)(F)F)o3)cc2)c1-c1ccc(Cl)cc1 [compound 42, 4-(4-Chlorophenyl)-5-methyl-3-(4-((5-(trifluoromethyl)furan-2-yl)methoxy)phenyl) isoxazole]",105.7 to 106.8 °C,13.4 µM,14 µM,–,–,–
"Cc1ccccc1COc1ccc(-c2noc(C)c2-c2ccccc2Cl)cc1 [compound 44, 5-Methyl-4-(2-chlorophenyl)-3-(4-((2-methylbenzyl)oxy)phenyl)isoxazole]",103.8 to 104.4 °C,> 20 µM,9.9 µM,–,–,–
"Cc1ccccc1COc1ccc(-c2noc(C)c2-c2ccc(F)cc2)cc1 [compound 45, 5-Methyl-4-(4-fluorophenyl)-3-(4-((2-methylbenzyl)oxy)phenyl)isoxazole]",119 to 120.5 °C,16.7 µM,> 20 µM,–,–,–
"COc1ccc(-c2c(-c3ccc(OCc4ccccc4C)cc3)noc2C)cc1 [compound 46, 5-Methyl-4-(4-methoxyphenyl)-3-(4-((2-methylbenzyl)oxy)phenyl)isoxazole]",121.3 to 122.7 °C,8.9 µM,12.8 µM,–,–,–
"Cc1ccc(-c2c(-c3ccc(OCc4ccccc4C)cc3)noc2C)cc1 [compound 47, 5-Methyl-4-(4-methylphenyl)-3-(4-((2-methylbenzyl)oxy)phenyl)isoxazole]",130.8 to 131.8 °C,1.8 µM,4.7 µM,–,–,–
"Cc1ccccc1COc1ccc(-c2noc(C)c2-c2ccc(C#N)cc2)cc1 [compound 48, 5-Methyl-4-(4-cyanophenyl)-3-(4-((2-methylbenzyl)oxy)phenyl)isoxazole]",135.3 to 137.1 °C,6.7 µM,≥ 20 µM,> 20 µM,–,–
"Cc1ccccc1COc1ccc(-c2noc(C)c2-c2cccc(C(F)(F)F)c2)cc1 [compound 49, 5-Methyl-4-(3-trifluoromethylphenyl)-3-(4-((2-methylbenzyl)oxy)phenyl)isoxazole]",120.7 to 122.4 °C,19 µM,> 20 µM,–,–,–
"Cc1ccccc1COc1ccc(-c2noc(C)c2-c2ccc(N)cc2)cc1 [compound 51, 5-Methyl-4-(4-aminophenyl)-3-(4-((2-methylbenzyl)oxy)phenyl)isoxazole]",119.4 to 121.1 °C,16.9 µM,19.7 µM,–,–,–
"Cc1ccccc1COc1ccc(-c2noc(C)c2-c2ccc(Cl)cc2Cl)cc1 [compound 53, 5-Methyl-4-(2,4-dichlorophenyl)-3-(4-((2-methylbenzyl)oxy)phenyl)isoxazole]",98 to 98.4 °C,8.2 µM,19.2 µM,–,–,–
"Cc1ccc(-c2c(-c3ccc(OCc4ccccc4C)cc3)noc2C)nc1 [compound 54, 5-Methyl-3-(4-((2-methylbenzyl)oxy)phenyl)-4-(5-methylpyridin-2-yl)isoxazole]",121.4 to 122.3 °C,6.4 µM,> 20 µM,–,–,–
"Cc1ccccc1COc1ccc(-c2noc(C)c2-c2ccncc2)cc1 [compound 55, 5-Methyl-3-(4-((2-methylbenzyl)oxy)phenyl)-4-(pyridin-4-yl)isoxazole]",128.5 to 129.3 °C,> 20 µM,> 20 µM,–,–,–
"Cc1ccccc1COc1ccc(-c2noc(C)c2-c2ccc(Cl)cc2)c(F)c1 [compound 56, 4-(4-Chlorophenyl)-3-(2-fluoro-4-((2-methylbenzyl)oxy)phenyl)-5-methylisoxazole]",96.1 to 98.3 °C,2.25 µM,9.53 µM,–,–,–
"Cc1ccccc1COc1ccc(-c2noc(C)c2-c2ccc(Cl)cc2)cc1F [compound 57, 4-(4-Chlorophenyl)-3-(3-fluoro-4-((2-methylbenzyl)oxy)phenyl)-5-methylisoxazole]",108 to 110.2 °C,9.8 µM,> 20 µM,–,–,–
"Cc1ccccc1CNc1ccc(-c2noc(C)c2-c2ccc(Cl)cc2)cc1 [compound 59, 4-(4-(4-Chlorophenyl)-5-methylisoxazol-3-yl)-N-(2-methylbenzyl)aniline]",134.9 to 137 °C,4 µM,≥ 20 µM,> 20 µM,–,–
"Cc1ccccc1COc1ccc(-c2onc(C)c2-c2ccc(Cl)cc2)cc1 [compound 60, 4-(4-Chlorophenyl)-3-methyl-5-(4-((2-methylbenzyl)oxy)phenyl)isoxazole]",153.8 to 154.9 °C,3.8 µM,~19 µM,19.6 µM,9.4 µM,–
"Cc1ccccc1COc1ccc(-c2oncc2-c2ccc(Cl)cc2)cc1 [compound 63, 4-(4-Chlorophenyl)-5-(4-((2-methylbenzyl)oxy)phenyl)isoxazole]",115.3 to 117.3 °C,1.5 µM,≥ 20 µM,> 20 µM,≥ 20 µM,20.1 µM
"Cc1nc(-c2ccc(OCc3ccccc3C)cc2)c(-c2ccc(Cl)cc2)s1 [compound 75, 5-(4-Chlorophenyl)-2-methyl-4-(4-((2-methylbenzyl)oxy)phenyl)thiazole]",90.5 to 92.1 °C,> 20 µM,> 20 µM,–,> 20 µM,–
"Cc1ccccc1COc1ccc(-n2nccc2-c2ccc(Cl)cc2)cc1 [compound 78, 5-(4-Chlorophenyl)-1-(4-((2-methylbenyl)oxy)phenyl)-1H-pyrazole]",145.2 to 146.4 °C,> 20 µM,> 20 µM,–,> 20 µM,–
"Cc1ccccc1COc1ccc(-c2ccnn2-c2ccc(Cl)cc2)nc1 [compound 86, 2-(1-(4-Chlorophenyl)-1H-pyrazol-5-yl)-5-((2-methylbenzyl)oxy)pyridine]",108.4 to 110.4 °C,2 µM,≥ 20 µM,21.7 µM,7.1 µM,–
"Cc1ccccc1COc1ccc(-c2ccnn2-c2ccc(Cl)cc2)cn1 [compound 87, 5-(1-(4-Chlorophenyl)-1H-pyrazol-5-yl)-2-((2-methylbenzyl)oxy)pyridine]",126.5 to 127.8 °C,> 20 µM,> 20 µM,–,> 20 µM,–
"Cc1ccccc1COc1ccc(-c2ccnn2-c2ccc(Cl)cc2)cc1F [compound 89, 1-(4-Chlorophenyl)-5-(3-fluoro-4-((2-methylbenzyl)oxy)phenyl)-1H-pyrazole]",95 to 95.4 °C,> 20 µM,> 20 µM,–,> 20 µM,–
"Cc1ccccc1C(=O)Nc1ccc(-c2ccnn2-c2ccc(Cl)cc2)cc1 [compound 91, N-(4-(1-(4-Chlorophenyl)-1H-pyrazol-5-yl)phenyl)-2-methylbenzamide]",179.1 to 180 °C,> 20 µM,> 20 µM,–,> 20 µM,–
